{"source": "paper PMC7217877", "about": "“N-AS-triggered SPMs are direct regulators of microglia in a model of Alzheimer’s disease” (Nature Communications, 2020)", "key": {"COX2 T564A": {"target": "T1, COX2 T564A (Homo sapiens, UniProt P35354, T564A)", "T1 construct": "His (N); made in house", "T1 sequence (P35354 18-604 T564A)": "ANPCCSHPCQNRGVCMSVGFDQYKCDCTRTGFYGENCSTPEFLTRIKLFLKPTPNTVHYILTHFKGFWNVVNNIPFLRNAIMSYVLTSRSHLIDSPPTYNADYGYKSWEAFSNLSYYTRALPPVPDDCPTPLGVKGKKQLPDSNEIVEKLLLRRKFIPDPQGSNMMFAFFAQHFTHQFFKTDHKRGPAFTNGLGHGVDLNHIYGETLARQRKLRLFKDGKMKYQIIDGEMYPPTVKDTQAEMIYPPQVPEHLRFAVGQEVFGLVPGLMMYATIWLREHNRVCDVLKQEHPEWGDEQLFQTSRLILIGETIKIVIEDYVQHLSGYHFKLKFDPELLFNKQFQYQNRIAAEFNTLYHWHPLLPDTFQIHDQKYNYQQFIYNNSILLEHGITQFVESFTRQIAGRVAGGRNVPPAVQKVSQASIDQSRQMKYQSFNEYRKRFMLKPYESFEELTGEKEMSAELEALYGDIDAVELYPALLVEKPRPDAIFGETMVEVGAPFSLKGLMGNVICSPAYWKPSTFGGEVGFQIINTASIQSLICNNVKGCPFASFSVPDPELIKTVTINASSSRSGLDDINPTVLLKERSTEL", "assay": "in vitro [14C] acetylation assay of purified COX2", "assay_type": "biochemical", "design": "unit not given here", "conditions": "replicates, listed as C14 N-AS", "from_the_text": "Single point mutations in SphK1 (R56A, R57A, R24A, R185A, D178A, and F192A) and COX2 (S565A, N181A, T564A, and S567A) were generated using the In-Fusion Cloning Kits (Clontech) and ORF cDNA expression plasmids of human SphK1 and COX2 gene (Sino Biological Inc, HG15679-NH and HG12036-NH), according to the manufacturer’s instructions. The forward and reverse primers described in Supplementary Table 4. The SphK1 WT, SphK1 mutants, COX2 WT, and COX2 mutant plasmids were transformed in the One shot TOP 10 competent cell (Invitrogen). The bacteria were grown in Luria-Bertani (LB, Invitrogen) plates supplemented with 50 μg ml^−1 kanamycin (Sigma-Aldrich) at 37 °C. The bacterial cell pellets were resuspended in lysis buffer containing 20 mM sodium phosphate (GE Healthcare), 500 mM NaCl (GE Healthcare), 20 mM imidazole (pH 7.4) (GE Healthcare), 0.2 mg ml^−1 lysozyme (Sigma-Aldrich), 20 μg ml^−1 DNase I (Roche), 1 mM MgCl2 (Sigma-Aldrich), and 1 mM PMSF (Sigma-Aldrich) before being lysed by sonication and clarified by centrifugation at 15,493×g for 10 min. […]\nAcetylation assays were performed according to previously described procedures with minor modifications. […] Acetylated COX2 proteins bound to the beads were analyzed using a Tri-Carb 3110TR liquid scintillation counter (Perkin-Elmer)."}, "5×FAD mice": {"system": "5×FAD mice", "assay": "ThioS Aβ plaque area and plaque morphometry (Supplementary Fig 8b,c)", "assay_type": "in vivo, mouse", "procedure": "Thioflavin S (Sigma-Aldrich) staining was carried out according to previously described procedures. We used 6E10 (mouse, 1:100, Signet, SIG39300), anti-20G10 (mouse, 1:1000, provided by D. R. Howlett, GlaxoSmithKline, Harlow, Essex, UK) for Aβ42, anti-G30 (rabbit, 1:1000, provided by D. R. Howlett) for Aβ40, SMA (mouse, 1:400, Sigma-Aldrich, A2547), AT8 (mouse, 1:500, Thermo Fisher Scientific, MN1020), Caspase-3 (mouse, 1:200, Novus Biologicals, NB100-56708), ac-S565 (rabbit, 1:100), COX2 (mouse, 1:250, Thermo Fisher Scientific, 35-8200), Iba1 (rabbit, 1:500, Wako, 019-19941 and goat, Abcam, ab5076), NeuN (mouse, 1:500, Millipore, MAB177), GFAP (rabbit, 1:500, Dako, N1506 and chicken, 1:500, Abcam, ab4674), and Lamp1 (mouse, 1:200, Abcam, ab24170). The sections were analyzed with a laser-scanning confocal microscope (FV3000; Olympus) or with a BX51 microscope (Olympus). MetaMorph software (Molecular Devices) was used to quantification. Three-dimensional reconstruction of microglia was recorded and analyzed using IMARIS software (Bitplane)[11]. For the analysis of age-dependent microglial COX2^+ CX3CR1^+ cells in WT and APP/PS1 mice, COX2 (rabbit, 1:100, Abcam, ab15191) and CX3CR1 (mouse, 1:100, BioLegend, 149008) antibody were used and the images were acquired on Alexa 488 and APC Channel with performed using Operetta CLS and Analysis Software 4.5 (Perkin-Elmer).\nTransgenic mouse lines over-expressing the hAPP695swe (APP) and presenilin-1M146V (PS1) mutations were originated from GlaxoSmithKline (Harlow, UK)[32] and maintained as described previously. We purchased 5×FAD mice from Jackson Labs (Stock number. 34840-JAX). Because APP/PS1 and 5xFAD mice show sex differences in disease progression, we used only male mice. To examine possible therapeutic effect of N-AS and aspirin in APP/PS1 mice, the N-AS (30 mg kg^−1, Sigma-Aldrich, 01912) was injected daily s.c. for 8 weeks to 7-months-old APP/PS1 mice until the age of 9 months, and aspirin (2 mg kg^−1, Sigma-Aldrich, A5376)[33] was administrated orally to 7-months-old APP/PS1 mice for 8 weeks. Also, to confirm possible therapeutic efficacy of N-AS in 5×FAD, the N-AS (30 mg kg^−1, Sigma-Aldrich, 01912) was injected daily s.c. for 4 weeks to 3-months-old 5×FAD mice until the age of 4 months. Block randomization method was used to allocate the animals to experimental groups. To eliminate the bias, we were blinded in experimental progress such as data collection and data analysis. Mice were housed at temperature of 22 °C and a 12 h day/12 h night cycle with free access to tap water and food pellets. All protocols were approved by the Kyungpook National University Institutional Animal Care and Use Committee."}}, "note": "Values joined by “and” are separate entries in the source; they are usually repeats but may differ in a detail not shown here. Equal values may be shown once."}
{"smiles": "CCCCCCCCCCCCC/C=C/[C@@H](O)[C@H](CO)NC(C)=O", "note": "[N-AS, N-((2S,3R,E)-1,3-Dihydroxyoctadec-4-en-2-yl)acetamide]", "values": [{"measurement": "C14 radioactivity of COX2, acetylation assay (Fig 1h)", "setting": "COX2 T564A", "value": "226529 and 226073 and 226403 and 227396 and 226676 and 226952"}, {"measurement": "Aβ plaques by size, <25mM", "setting": "5×FAD mice; 5xFAD + N-AS, sFig 8c", "value": "92.2364 and 92.245 and 94.982 and 89.4908 and 95.585 and 93.6135"}, {"measurement": "Aβ plaques by size, >50mM", "setting": "5×FAD mice; 5xFAD + N-AS, sFig 8c", "value": "5.395 and 4.6761 and 5.546 and 5.244 and 3.581 and 5.111"}, {"measurement": "Aβ plaques by size, 25-50mM", "setting": "5×FAD mice; 5xFAD + N-AS, sFig 8c, in % (unit assumed)", "value": "5.341 and 4.808 and 4.956 and 5.7255 and 3.9859 and 4.882"}, {"measurement": "Aβ plaque deposit and Aβ plaque phagocytosis", "setting": "5×FAD mice; 5×FAD, N-AS 30 mg kg^-1 daily s.c. 4 weeks", "value": "similarly improved AD pathology of 5×FAD mice"}]}
